Test results: PubChem BioAssay (NCI)
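Compound exposure: 48 hours, 5 concentrations, 96-well plates. Definition used: TGI = concentration required for complete inhibition of growth.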

What was measured:
Assay in all cases: NCI tumour cell line growth inhibition, 48 h
[1] = tested on: M14 melanoma
[2] = tested on: KM12 colon
[3] = tested on: TK-10 renal
[4] = tested on: HS 578T breast
[5] = tested on: HCC-2998 colon
[6] = tested on: K-562 leukemia
[7] = tested on: SK-OV-3 ovarian
[8] = tested on: OVCAR-5 ovarian
[9] = tested on: SF-268 CNS
[10] = tested on: CCRF-CEM leukemia
[11] = tested on: HOP-18 NSCLC
[12] = tested on: T-47D breast
[13] = tested on: DU-145 prostate
[14] = tested on: NCI-H460 lung
[15] = tested on: MCF7 breast
[16] = tested on: EKVX NSCLC
[17] = tested on: 786-0 renal
[18] = tested on: RPMI-8226 leukemia
[19] = tested on: P388 leukemia
[20] = tested on: SNB-75 CNS
[21] = tested on: MALME-3M melanoma
[22] = tested on: HOP-92 NSCLC
[23] = tested on: MDA-N
[24] = tested on: UACC-62 melanoma
[25] = tested on: MOLT-4 leukemia
[26] = tested on: HL-60(TB) leukemia
[27] = tested on: SW-620 colon
[28] = tested on: NCI-H23 lung
[29] = tested on: HCT-116 colon
[30] = tested on: SN12C renal
[31] = tested on: A498 renal
[32] = tested on: HOP-62 NSCLC
[33] = tested on: OVCAR-3 ovarian
[34] = tested on: CAKI-1 renal
[35] = tested on: COLO 205 colon
[36] = tested on: NCI-H522 lung
[37] = tested on: HCT-15 colon
[38] = tested on: KM20L2 colon
[39] = tested on: PC-3 prostate
[40] = tested on: DMS 114 small cell lung
[41] = tested on: SK-MEL-2 melanoma
[42] = tested on: U251 CNS
[43] = tested on: HT29 colon
[44] = tested on: SF-539 CNS
[45] = tested on: NCI/ADR-RES ovarian
[46] = tested on: A549 NSCLC
[47] = tested on: UO-31 renal
[48] = tested on: NCI-H226 lung
[49] = tested on: ACHN renal
[50] = tested on: SNB-78 CNS
[51] = tested on: DLD-1 colon
[52] = tested on: SK-MEL-28 melanoma
[53] = tested on: MDA-MB-231 breast
[54] = tested on: RXF 393 renal
[55] = tested on: OVCAR-4 ovarian
[56] = tested on: OVCAR-8 ovarian
[57] = tested on: LOX IMVI melanoma
[58] = tested on: MDA-MB-435
[59] = tested on: SF-295 CNS
[60] = tested on: M19-MEL melanoma
[61] = tested on: SK-MEL-5 melanoma
[62] = tested on: IGROV1 ovarian
[63] = tested on: BT-549 breast
[64] = tested on: SNB-19 CNS
[65] = tested on: P388/ADR leukemia
[66] = tested on: UACC-257 melanoma
[67] = tested on: SN12K1 renal
[68] = tested on: XF 498 CNS
[69] = tested on: DMS 273 small cell lung
[70] = tested on: SR leukemia
[71] = tested on: RXF-631 renal
[72] = tested on: LXFL 529 NSCLC

## CCCCCCCCOC(=O)c1cc([N+](=O)[O-])c(Sc2ncnc3nc[nH]c23)c([N+](=O)[O-])c1
[1]
  TGI: 26.9 µM
[2]
  TGI: 18 µM
[3]
  TGI: 8.58 µM
[4]
  TGI: 70.9 µM
[5]
  TGI: 16.2 µM
[6]
  TGI: 7.8 µM
[7]
  TGI: 25.3 µM
[8]
  TGI: 13.8 µM
[9]
  TGI: 8.47 µM
[10]
  TGI: 2.68 µM
[11]
  TGI: 11.1 µM
[12]
  TGI: 3.31 µM
[13]
  TGI: 18.6 µM
[14]
  TGI: 17.4 µM
[15]
  TGI: 12.1 µM
[16]
  TGI: 26.8 µM
[17]
  TGI: > 37.2 µM
[18]
  TGI: 8.54 µM
[19]
  TGI: 0.447 µM
[20]
  TGI: 9.27 µM
[21]
  TGI: 19.9 µM
[22]
  TGI: 6.32 µM
[23]
  TGI: 22.5 µM
[24]
  TGI: 17 µM
[25]
  TGI: 16.2 µM
[26]
  TGI: 9.82 µM
[27]
  TGI: 8.31 µM
[28]
  TGI: 11.7 µM
[29]
  TGI: 5.35 µM
[30]
  TGI: 7.34 µM
[31]
  TGI: 44.9 µM
[32]
  TGI: 21.8 µM
[33]
  TGI: 4.01 µM
[34]
  TGI: 17.7 µM
[35]
  TGI: 3.68 µM
[36]
  TGI: 2.41 µM
[37]
  TGI: 20.6 µM
[38]
  TGI: 9.22 µM
[39]
  TGI: 13.8 µM
[40]
  TGI: 1.81 µM
[41]
  TGI: 17.7 µM
[42]
  TGI: 17.3 µM
[43]
  TGI: 4.87 µM
[44]
  TGI: 5.8 µM
[45]
  TGI: 25.7 µM
[46]
  TGI: 27.3 µM
[47]
  TGI: 19.9 µM
[48]
  TGI: 13.5 µM
[49]
  TGI: 10.2 µM
[50]
  TGI: 10.5 µM
[51]
  TGI: 2.94 µM
[52]
  TGI: 42.8 µM
[53]
  TGI: > 31.6 µM
[54]
  TGI: > 47.6 µM
[55]
  TGI: 13.5 µM
[56]
  TGI: 10.1 µM
[57]
  TGI: 1.24 µM
[58]
  TGI: > 38.4 µM
[59]
  TGI: 11.2 µM
[60]
  TGI: 12.9 µM
[61]
  TGI: 18.4 µM
[62]
  TGI: 16 µM
[63]
  TGI: 25.7 µM
[64]
  TGI: 32.9 µM
[65]
  TGI: 0.458 µM
[66]
  TGI: 28 µM
[67]
  TGI: 2.64 µM
[68]
  TGI: 2.24 µM
[69]
  TGI: 1.57 µM

## C=CCCCCCCCCC(=O)O
[2]
  TGI: 107 µM
[5]
  TGI: 202 µM
[6]
  TGI: 426 µM
[7]
  TGI: 294 µM
[8]
  TGI: 351 µM
[9]
  TGI: 254 µM
[10]
  TGI: 292 µM
[11]
  TGI: 226 µM
[14]
  TGI: 191 µM
[15]
  TGI: 452 µM
[16]
  TGI: 255 µM
[18]
  TGI: 352 µM
[19]
  TGI: 379 µM
[20]
  TGI: 468 µM
[21]
  TGI: 302 µM
[22]
  TGI: 199 µM
[24]
  TGI: 190 µM
[25]
  TGI: 265 µM
[26]
  TGI: 231 µM
[27]
  TGI: 260 µM
[28]
  TGI: 274 µM
[29]
  TGI: 225 µM
[30]
  TGI: 339 µM
[31]
  TGI: 1.06 µM
[32]
  TGI: 168 µM
[33]
  TGI: 176 µM
[34]
  TGI: 214 µM
[35]
  TGI: 197 µM
[36]
  TGI: 209 µM
[37]
  TGI: 192 µM
[38]
  TGI: 268 µM
[40]
  TGI: 389 µM
[41]
  TGI: 152 µM
[42]
  TGI: 242 µM
[43]
  TGI: 227 µM
[44]
  TGI: 212 µM
[45]
  TGI: 558 µM
[46]
  TGI: 214 µM
[47]
  TGI: 162 µM
[48]
  TGI: 394 µM
[50]
  TGI: 607 µM
[51]
  TGI: 163 µM
[52]
  TGI: 322 µM
[54]
  TGI: 207 µM
[55]
  TGI: 341 µM
[56]
  TGI: 283 µM
[57]
  TGI: 259 µM
[59]
  TGI: 200 µM
[60]
  TGI: 449 µM
[61]
  TGI: 183 µM
[62]
  TGI: 287 µM
[64]
  TGI: 362 µM
[65]
  TGI: 264 µM
[66]
  TGI: 492 µM
[67]
  TGI: 209 µM
[68]
  TGI: 30.9 µM
[69]
  TGI: 289 µM

## C=C(CCCO)[C@@H]1CC[C@@](C)(O)[C@H]1C
[2]
  TGI: > 100 µM
[3]
  TGI: > 100 µM
[5]
  TGI: > 100 µM
[6]
  TGI: > 100 µM
[7]
  TGI: > 100 µM
[8]
  TGI: > 100 µM
[11]
  TGI: > 100 µM
[14]
  TGI: > 100 µM
[16]
  TGI: > 100 µM
[17]
  TGI: > 100 µM
[18]
  TGI: > 100 µM
[20]
  TGI: > 100 µM
[21]
  TGI: > 100 µM
[70]
  TGI: > 100 µM
[24]
  TGI: > 100 µM
[25]
  TGI: > 100 µM
[27]
  TGI: > 100 µM
[28]
  TGI: > 100 µM
[29]
  TGI: > 100 µM
[30]
  TGI: > 100 µM
[33]
  TGI: > 100 µM
[34]
  TGI: > 100 µM
[35]
  TGI: > 100 µM
[36]
  TGI: > 100 µM
[37]
  TGI: > 100 µM
[71]
  TGI: > 100 µM
[38]
  TGI: > 100 µM
[40]
  TGI: > 100 µM
[41]
  TGI: > 100 µM
[42]
  TGI: > 100 µM
[43]
  TGI: > 100 µM
[44]
  TGI: > 100 µM
[46]
  TGI: > 100 µM
[47]
  TGI: > 100 µM
[48]
  TGI: > 100 µM
[49]
  TGI: > 100 µM
[50]
  TGI: > 100 µM
[52]
  TGI: > 100 µM
[54]
  TGI: > 100 µM
[55]
  TGI: > 100 µM
[56]
  TGI: > 100 µM
[59]
  TGI: > 100 µM
[60]
  TGI: > 100 µM
[61]
  TGI: > 100 µM
[62]
  TGI: > 100 µM
[64]
  TGI: > 100 µM
[66]
  TGI: > 100 µM
[68]
  TGI: > 100 µM
[72]
  TGI: > 100 µM
[69]
  TGI: > 100 µM
